In patent publication US4359468A, “Antiallergic N-[4-(indolyl)-piperidino-alkyl]-benzimidazolones” (Boehringer Ingelheim Ltd., priority 1981, dated 1982):

Experiments:
[1] = tested on: passive cutaneous anaphylaxis skin reaction in rats (anti-OA reaginic serum, ovalbumin challenge); assay: Rat Passive Cutaneous Anaphylaxis (PCA) Test; assay type: in vivo; details: male CD rats, 50 percent reduction in area, i.v. or oral, route not given
Method: Rat Passive Cutaneous Anaphylaxis (PCA) Test
The test used was essentially that described by El-Azab, J. and Stewart, P. B., "Pharmacological Profile of a New Anti-Allergic Compound PRD-92-EA." Int. Archs. Allergy Appl. Immunol. 55: 350-361, 1977;
A dilution of anti-OA reaginic serum was used to give reproducible skin reactions with diameters between 10-15 mm in unsensitized rats. This anti-serum dilution was injected in a volume of 0.1 ml intradermally on each side of the shaved backs of male CD rats (150-160 gm) before antigen challenge. Test compounds which were evaluated by the intravenous (i.v.) route were dissolved in water, and mixed with 0.5 ml of a solution containing 5 mg ovalbumin and 2 percent Evans Blue and administered at a volume of 1 ml/kg. […]
Thirty minutes after antigenic challenge, i.e. for either intravenous or oral administration, the rats were killed by CO2 asphyxiation. A midline incision was made along the spine and the skin was reflected and the diameter of the blued areas were measured in millimeters. The mean area in square millimeters was determined for each spot and the mean circular area of that test group was calculated. The mean area in square millimeters of an untreated control group was considered as a 100 percent response, and the results of the test compound groups were expressed as a percent change from the control values. […]

[2] = tested on: histamine-induced blueing in rat skin; assay: In Vivo Inhibition of Histamine-Induced Blueing in Rat Skin; details: po, male CD rats, 50 percent reduction in blue-spotted area, p.o., 3 μg histamine intradermal, read-out: ED50 Antihist.
Method: In Vivo Inhibition of Histamine-Induced Blueing in Rat Skin
Male CD rats (150-160 gm) were divided into two groups. The hair was removed from an area of the back with an electric clipper. An untreated control group received 10 ml/kg, p.o. of normal saline in 1 percent acacia. Experimental groups received test compound suspended in 1 percent acacia at a volume of 10 ml/kg, p.o. Two percent Evans Blue dye in normal saline in a volume of 0.5 ml was administered intravenously to all animals. Twenty minutes following administration of the test compound or vehicle, 3 μg of histamine diphosphate in 0.1 ml of normal saline was injected intradermally in two sites of the shaved area on the backs of the rats. Fifteen minutes following histamine injection, all rats were killed by CO2 asphyxiation.
An incision was made along the spine and the skin cleanly separated. The dorsal skin was reflected and the diameters of the blue-spotted wheals were measured. The area in square millimeters was determined for each resulting blue spot and the mean area for the control and test groups were calculated. The mean area for the control group was considered as a 100 percent response. Test group results were expressed as a percentage change from control. An ED50 (i.e., defined as a 50 percent reduction in blue-spotted area) was determined by linear regression analysis.

mast cells = assay: Inhibition of Peritoneal Mast Cell Degranulation (MCD) in Rats Passively Sensitized with OA Antiserum or Induced by Compound 48/80; assay type: in vivo, rat; details: male CD rats, OA antiserum or Compound 48/80, i.v., i.p. or p.o., route not given
Method: Inhibition of Peritoneal Mast Cell Degranulation (MCD) in Rats Passively Sensitized with OA Antiserum or Induced by Compound 48/80
This test was adapted from that described by Mota, I. and Osler, A. G. "Mast Cell Degranulation,"
Male CD rats (150-160 gm) were divided into 5 groups as follows:
Group I: Nonspecific MCD control (3 rats)
Group II: Positive MCD control (5 rats)
Groups III, IV, V: Positive MCD following test compound (5 rats each)
Group I was injected intraperitoneally with 3 ml of normal rat serum. Groups II through V were intraperitoneally administered 3 ml of an antiserum predetermined to produce a 60-80 percent greater degranulation than normal rat serum. Eighteen to 24 hours later, test compound was administered (i.e., i.v. immediately, i.p. 5 minutes, or p.o. 20 minutes) before i.p. antigen challenge with 0.5 mg/kg of 2×crystalline ovalbumin in a concentration of 0.005 percent saline. Fifteen minutes after challenge, the rats were killed by asphyxiation with CO2. […]
Microscopic slides of the mesentery were prepared and analyzed by a modification of the method by Fugner, A. "An Improved Method for the Study of Reaginmediated Mast Cell Degranulation in Rats," Experientia, 29: 708, 1973, […]
The results were calculated and expressed as percent of inhibition of degranulation as follows: [formula]

With `O=c1[nH]c2ccccc2n1CCCN1CCC(c2c[nH]c3ccccc23)CC1` [Example 4, N-{3-[4-(3-indolyl)-piperidino]-propyl}-benzimidazolone] the ED50 [1] was 1.6 mg/kg, the ED50 [2] was 8.7 mg/kg and the ED50 (mast cells; Rattus norvegicus, Mast cell) was 3 to 6.4 mg/kg.
In the case of `O=c1[nH]c2ccccc2n1CCCN1CCN(C(c2ccccc2)c2ccccc2)CC1` [Oxatomide], the ED50 [1] was 8.3 mg/kg, the ED50 [2] was 8.1 mg/kg and the “ED50 MCD” value (mast cells) was “neg”.
